Laboratory results from patent publication US20090143279A1 (priority 2007, published 2009).
Where two headings read alike, the source gives them in different places.

Experiments:
mtOXPHOS transcripts = type: cell-based, mouse; settings: for mitoOX (composite Z-score): normalized score vs mock-treated (DMSO) wells
nuOXPHOS transcripts = type: cell-based, mouse; settings: for nucOX (composite Z-score): normalized score vs mock-treated (DMSO) wells
[1] = system: cellular dehydrogenase activity; settings: for MTT (composite Z-score): normalized score vs mock-treated (DMSO) wells
[2] = system: mitochondrial membrane potential; type: cell-based, mouse; settings: for ΔΨm (composite Z-score): normalized score vs mock-treated (DMSO) wells
OXPHOS gene expression = type: cell-based, mouse; settings: for GE-HTS (composite Z-score): normalized score vs mock-treated (DMSO) wells
C2C12 myotubes = settings: for Viability (composite Z-score): normalized score vs mock-treated (DMSO) wells
cytochrome c = type: cell-based, mouse; settings: for cyt c (composite Z-score): normalized score vs mock-treated (DMSO) wells
reactive oxygen species = type: cell-based, mouse; settings: for ROS (composite Z-score): normalized score vs mock-treated (DMSO) wells
[3] = normalized composite Z-score vs mock-treated (DMSO) wells, Conc 20 μM
[4] = composite Z-score vs DMSO wells, Conc 20 μM
[5] = composite Z-score vs mock-treated (DMSO) wells, Conc 20 μM
[6] = 20 μM, composite Z-score vs DMSO

Chain of cytochrome c (P62897 whole entry): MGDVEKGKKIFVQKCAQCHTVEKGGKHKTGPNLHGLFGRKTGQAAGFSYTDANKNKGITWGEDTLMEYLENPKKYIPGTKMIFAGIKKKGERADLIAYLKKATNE

Compound: COc1ccc(-c2oc3cc(O[C@@H]4O[C@H](CO)[C@@H](O)[C@H](O)[C@H]4O)c(OC)c(O)c3c(=O)c2OC)cc1O [centaurein]
- mitoOX (composite Z-score) (mtOXPHOS transcripts; Conc 20 μM): 0.657
- nucOX (composite Z-score) (nuOXPHOS transcripts; Conc 20 μM): 0.388
- MTT (composite Z-score) ([1]; Conc 20 μM): −1.640
- ΔΨm (composite Z-score) ([2]; Conc 20 μM): −0.744
- GE-HTS (composite Z-score) (OXPHOS gene expression; Conc 20 μM): 0.497
- Viability (composite Z-score) (C2C12 myotubes; Conc 20 μM): −0.006
- cyt c (composite Z-score) (cytochrome c; Conc 20 μM): −0.039
- ROS (composite Z-score) (reactive oxygen species; Conc 20 μM): −0.090

Compound: CC[C@@]1(O)C(=O)OCc2c1cc1n(c2=O)Cc2cc3cc(O)ccc3nc2-1 [10-hydroxycamtothecin]
- mitoOX (composite Z-score) (mtOXPHOS transcripts; Conc 20 μM): −0.782
- nucOX (composite Z-score) (nuOXPHOS transcripts; Conc 20 μM): −1.180
- MTT (composite Z-score) ([1]; Conc 20 μM): −2.588
- ΔΨm (composite Z-score) ([2]; Conc 20 μM): 0.725
- GE-HTS (composite Z-score) (OXPHOS gene expression; Conc 20 μM): −1.137
- Viability (composite Z-score) (C2C12 myotubes; Conc 20 μM): −1.466
- cyt c (composite Z-score) (cytochrome c; Conc 20 μM): −2.397
- ROS (composite Z-score) (reactive oxygen species; Conc 20 μM): −1.681

Compound: CN[C@H]1CC[C@@H](c2ccc(Cl)c(Cl)c2)c2ccccc21 [sertraline]
- mitoOX (mtOXPHOS transcripts): 0.020
- nucOX (nuOXPHOS transcripts): −1.476
- MTT [1]: −1.905
- ΔΨm [2]: 0.420
- GE-HTS (OXPHOS gene expression): −1.068
- Viability (C2C12 myotubes): 0.279
- cyt c (cytochrome c): −1.121
- ROS (reactive oxygen species): 0.090

Compound: CC(=O)O[C@H]1CC[C@]2(C)[C@H]3C(=O)C=C4[C@@H]5[C@@H](C)[C@H](C)CC[C@]5(C(=O)O)CC[C@@]4(C)[C@]3(C)CC[C@H]2C1(C)C [11-oxoursolic acid acetate]
- mitoOX (mtOXPHOS transcripts; [3]): −0.027
- nucOX (nuOXPHOS transcripts; [3]): −0.304
- MTT [1, 3]: −1.214
- ΔΨm [2, 3]: −0.524
- GE-HTS (OXPHOS gene expression; [3]): −0.240
- Viability (C2C12 myotubes; [3]): 1.094
- cyt c (cytochrome c; [3]): −1.393
- ROS (reactive oxygen species; [3]): 0.280

Compound: Oc1c(Cl)cc(Cl)cc1Sc1cc(Cl)cc(Cl)c1O [bithionol]
- mitoOX (mtOXPHOS transcripts; [4]): −1.838
- nucOX (nuOXPHOS transcripts; [4]): −1.261
- MTT [1, 4]: 0.593
- ΔΨm [2, 4]: −2.723
- GE-HTS (OXPHOS gene expression; [4]): −1.531
- Viability (C2C12 myotubes; [4]): −2.247
- cyt c (cytochrome c; [4]): −2.613
- ROS (reactive oxygen species; [4]): 1.449

Compound: CCC(=O)OC1[C@@H]2CC3=C4CC(=O)O[C@@H](c5ccoc5)[C@]4(C)CCC3[C@@](C)(C2=O)[C@@H](CC(=O)OC)C1(C)C (stereo partly drawn) [khayasin C]
- mitoOX (mtOXPHOS transcripts; [5]): 1.232
- nucOX (nuOXPHOS transcripts; [5]): 0.033
- MTT [1, 5]: −1.678
- ΔΨm [2, 5]: −0.095
- GE-HTS (OXPHOS gene expression; [5]): 0.442
- Viability (C2C12 myotubes; [5]): −1.021
- cyt c (cytochrome c; [5]): −0.654
- ROS (reactive oxygen species; [5]): −0.078

Compound: Cc1cc(O)ccc1Cl [chlorocresol]
- mitoOX (mtOXPHOS transcripts; [6]): −0.728
- nucOX (nuOXPHOS transcripts; [6]): 0.611
- MTT [1, 6]: −0.607
- ΔΨm [2, 6]: 0.528
- GE-HTS (OXPHOS gene expression; [6]): 0.206
- Viability (C2C12 myotubes; [6]): −0.414
- cyt c (cytochrome c; [6]): 0.747
- ROS (reactive oxygen species; [6]): 0.102

Compound: O=C(O)c1cc([N+](=O)[O-])ccc1NCCCc1ccccc1 [5-nitro-2-phenylpropylaminobenzoic acid]
- mitoOX (composite Z-score vs DMSO) (mtOXPHOS transcripts): −0.075
- nucOX (composite Z-score vs DMSO) (nuOXPHOS transcripts): 0.089
- MTT (composite Z-score vs DMSO) [1]: −0.786
- ΔΨm (composite Z-score vs DMSO) [2]: −0.937
- GE-HTS (composite Z-score vs DMSO) (OXPHOS gene expression): 0.038
- Viability (composite Z-score vs DMSO) (C2C12 myotubes): −0.939
- cyt c (composite Z-score vs DMSO) (cytochrome c): 0.412
- ROS (composite Z-score vs DMSO) (reactive oxygen species): 0.872

Compound: caryophyllene
- mitoOX (composite Z-score) (mtOXPHOS transcripts; Conc 20 μM): −0.100
- nucOX (composite Z-score) (nuOXPHOS transcripts; Conc 20 μM): 0.216
- MTT (composite Z-score) ([1]; Conc 20 μM): −0.525
- ΔΨm (composite Z-score) ([2]; Conc 20 μM): 1.045
- GE-HTS (composite Z-score) (OXPHOS gene expression; Conc 20 μM): 0.119
- Viability (composite Z-score) (C2C12 myotubes; Conc 20 μM): −0.255
- cyt c (composite Z-score) (cytochrome c; Conc 20 μM): −0.121
- ROS (composite Z-score) (reactive oxygen species; Conc 20 μM): 0.996

Compound: C=C1C(=O)O[C@H]2C[C@@H]1C(OC(C)=O)C/C(C)=C/CC/C(C)=C/CC[C@@]2(C)O (stereo partly drawn) [crassin acetate]
- mitoOX (mtOXPHOS transcripts; [5]): −0.703
- nucOX (nuOXPHOS transcripts; [5]): −0.685
- MTT [1, 5]: −1.220
- ΔΨm [2, 5]: 0.374
- GE-HTS (OXPHOS gene expression; [5]): −0.720
- Viability (C2C12 myotubes; [5]): −2.757
- cyt c (cytochrome c; [5]): −1.840
- ROS (reactive oxygen species; [5]): −1.394

Compound: mepartricin
- mitoOX (composite Z-score) (mtOXPHOS transcripts; Conc 20 μM): −0.464
- nucOX (composite Z-score) (nuOXPHOS transcripts; Conc 20 μM): −0.728
- MTT (composite Z-score) ([1]; Conc 20 μM): −1.431
- ΔΨm (composite Z-score) ([2]; Conc 20 μM): −0.309
- GE-HTS (composite Z-score) (OXPHOS gene expression; Conc 20 μM): −0.710
- Viability (composite Z-score) (C2C12 myotubes; Conc 20 μM): −0.568
- cyt c (composite Z-score) (cytochrome c; Conc 20 μM): 0.264
- ROS (composite Z-score) (reactive oxygen species; Conc 20 μM): −0.251

Compound: CCOC(=O)CCC(=O)O[C@H]1[C@H](O[C@@H]2[C@@H](C)[C@H](O[C@H]3C[C@@](C)(OC)[C@@H](O)[C@H](C)O3)[C@@H](C)C(=O)O[C@H](CC)[C@@](C)(O)[C@H](O)[C@@H](C)C(=O)[C@H](C)C[C@@]2(C)O)O[C@H](C)C[C@@H]1N(C)C [erythromycin ethylsuccinate]
- mitoOX (mtOXPHOS transcripts; [6]): −0.163
- nucOX (nuOXPHOS transcripts; [6]): −0.433
- MTT [1, 6]: −1.100
- ΔΨm [2, 6]: −0.488
- GE-HTS (OXPHOS gene expression; [6]): −0.390
- Viability (C2C12 myotubes; [6]): −0.945
- cyt c (cytochrome c; [6]): 0.220
- ROS (reactive oxygen species; [6]): 0.555
